ChEMBL document CHEMBL6092203, “Discovery of Novel PROTAC-Based HPK1 Degraders with High Potency and Selectivity for Cancer Immunotherapy” (J Med Chem, 2024)

Assays:
[1] = molecular target: Protein cereblon/Mitogen-activated protein kinase kinase kinase kinase 1 (Homo sapiens, UniProt Q92918+Q96SW2); assay: PROTAC activity at CRBN/HPK1 in human Jurkat cells incubated for 24 hrs by Western blotting analysis; assay type: cell-based
[2] = molecular target: Mitogen-activated protein kinase kinase kinase kinase 1 (Homo sapiens, UniProt Q92918); assay: Induction of HPK1 (unknown origin) degradation
Chain of Mitogen-activated protein kinase kinase kinase kinase 1 (Q92918 whole entry): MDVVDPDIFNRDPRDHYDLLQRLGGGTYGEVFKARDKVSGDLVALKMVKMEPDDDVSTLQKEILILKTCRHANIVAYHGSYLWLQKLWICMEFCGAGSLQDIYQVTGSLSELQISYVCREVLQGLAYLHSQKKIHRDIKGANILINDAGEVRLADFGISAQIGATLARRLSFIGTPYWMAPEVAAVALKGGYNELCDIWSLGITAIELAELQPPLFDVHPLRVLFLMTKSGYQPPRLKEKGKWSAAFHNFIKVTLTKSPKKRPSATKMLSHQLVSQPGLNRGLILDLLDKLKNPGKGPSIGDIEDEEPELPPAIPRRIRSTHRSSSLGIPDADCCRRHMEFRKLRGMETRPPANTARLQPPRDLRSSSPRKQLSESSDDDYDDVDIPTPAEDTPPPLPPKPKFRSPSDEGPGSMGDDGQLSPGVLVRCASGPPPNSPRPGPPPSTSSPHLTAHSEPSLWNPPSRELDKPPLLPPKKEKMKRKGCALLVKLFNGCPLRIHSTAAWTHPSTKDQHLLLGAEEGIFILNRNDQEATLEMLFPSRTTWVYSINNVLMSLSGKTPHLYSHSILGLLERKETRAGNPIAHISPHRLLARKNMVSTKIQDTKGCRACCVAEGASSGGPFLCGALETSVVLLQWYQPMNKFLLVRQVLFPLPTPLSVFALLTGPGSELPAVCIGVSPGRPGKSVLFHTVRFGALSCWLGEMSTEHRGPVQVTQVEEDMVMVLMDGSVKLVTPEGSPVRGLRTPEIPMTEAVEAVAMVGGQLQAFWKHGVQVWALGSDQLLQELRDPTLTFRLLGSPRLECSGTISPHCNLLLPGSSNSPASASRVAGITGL

[3] = system: MC-38; assay: Synergistic antitumor activity against mouse MC38 cells implanted in C57BL/6J mouse assessed as reduction in tumor weight at 10 mg/kg, po bid administered for 3 to 4 weeks in presence of 5 mg/kg anti-PD1 and measured twice a week (reference value: 1.79 +/- 0.24 g); assay type: functional; conditions: time 3-4 weeks
[4] = system: MC-38; assay: Synergistic antitumor activity against mouse MC38 cells implanted in C57BL/6J mouse assessed as tumor growth inhibition at 1 mg/kg, po bid measured after 4 weeks in presence of 5 mg/kg anti-PD1 and measured twice a week; assay type: functional; conditions: MC-38, 672 h, read-out: TGI
[5] = system: MC-38; assay: Antitumor activity against mouse MC38 cells implanted in C57BL/6J mouse assessed as reduction in tumor weight at 10 mg/kg, po BID administered for 3 to 4 weeks (reference value: 1.79 +/- 0.24 g); assay type: functional; conditions: time 3-4 weeks
[6] = system: MC-38; assay: Antitumor activity against mouse MC38 cells implanted in C57BL/6J mouse assessed as tumor weight inhibition rate at 1 mg/kg, po BID measured after 4 weeks; assay type: functional; set-up: scale not given: the % may be the effect or the level left
[7] = system: MC-38; assay: Antitumor activity against mouse MC38 cells implanted in C57BL/6J mouse assessed as tumor weight inhibition rate at 10 mg/kg, po BID measured after 4 weeks; assay type: functional; set-up: scale not given: the % may be the effect or the level left
[8] = system: MC-38; assay: Synergistic antitumor activity against mouse MC38 cells implanted in C57BL/6J mouse assessed as reduction in tumor weight at 1 mg/kg, po bid administered for 3 to 4 weeks in presence of 5 mg/kg anti-PD1 and measured twice a week (reference value: 1.79 +/- 0.24 g); assay type: functional; conditions: time 3-4 weeks
[9] = system: MC-38; assay: Synergistic antitumor activity against mouse MC38 cells implanted in C57BL/6J mouse assessed as tumor weight inhibition rate at 10 mg/kg, po bid measured after 4 weeks in presence of 5 mg/kg anti-PD1 and measured twice a week; assay type: functional; set-up: scale not given: the % may be the effect or the level left
[10] = system: MC-38; assay: Synergistic antitumor activity against mouse MC38 cells implanted in C57BL/6J mouse assessed as tumor weight inhibition rate at 1 mg/kg, po bid measured after 4 weeks in presence of 5 mg/kg anti-PD1 and measured twice a week; assay type: functional; set-up: scale not given: the % may be the effect or the level left
[11] = system: MC-38; assay: Synergistic antitumor activity against mouse MC38 cells implanted in C57BL/6J mouse assessed as reduction in tumor volume at 10 mg/kg, po bid administered for 3 to 4 weeks in presence of 5 mg/kg anti-PD1 and measured twice a week (reference value: 1549.22 +/- 217.92 mm3); assay type: functional; conditions: time 3-4 weeks
[12] = system: MC-38; assay: Antitumor activity against mouse MC38 cells implanted in C57BL/6J mouse assessed as reduction in tumor weight at 1 mg/kg, po BID administered for 3 to 4 weeks (reference value: 1.79 +/- 0.24 g); assay type: functional; conditions: time 3-4 weeks
[13] = system: MC-38; assay: Antitumor activity against mouse MC38 cells implanted in C57BL/6J mouse assessed as tumor growth inhibition at 10 mg/kg, po BID measured after 4 weeks; assay type: functional; conditions: MC-38, 672 h, read-out: TGI
[14] = system: MC-38; assay: Synergistic antitumor activity against mouse MC38 cells implanted in C57BL/6J mouse assessed as tumor growth inhibition at 10 mg/kg, po bid measured after 4 weeks in presence of 5 mg/kg anti-PD1 and measured twice a week; assay type: functional; conditions: MC-38, 672 h, read-out: TGI
[15] = system: MC-38; assay: Antitumor activity against mouse MC38 cells implanted in C57BL/6J mouse assessed as tumor growth inhibition at 1 mg/kg, po BID measured after 4 weeks; assay type: functional; conditions: MC-38, 672 h, read-out: TGI
[16] = system: MC-38; assay: Antitumor activity against mouse MC38 cells implanted in C57BL/6J mouse assessed as reduction in tumor volume at 1 mg/kg, po BID administered for 3 to 4 weeks (reference value: 1549.22 +/- 217.92 mm3); assay type: functional; conditions: time 3-4 weeks
[17] = system: MC-38; assay: Antitumor activity against mouse MC38 cells implanted in C57BL/6J mouse assessed as reduction in tumor volume at 10 mg/kg, po BID administered for 3 to 4 weeks (reference value: 1549.22 +/- 217.92 mm3); assay type: functional; conditions: time 3-4 weeks
[18] = system: MC-38; assay: Synergistic antitumor activity against mouse MC38 cells implanted in C57BL/6J mouse assessed as reduction in tumor volume at 1 mg/kg, po bid administered for 3 to 4 weeks in presence of 5 mg/kg anti-PD1 and measured twice a week (reference value: 1549.22 +/- 217.92 mm3); assay type: functional; conditions: time 3-4 weeks

Chain of Protein cereblon/Mitogen-activated protein kinase kinase kinase kinase 1 (Q92918 whole entry): as above
Chain of Protein cereblon/Mitogen-activated protein kinase kinase kinase kinase 1 (Q96SW2 whole entry): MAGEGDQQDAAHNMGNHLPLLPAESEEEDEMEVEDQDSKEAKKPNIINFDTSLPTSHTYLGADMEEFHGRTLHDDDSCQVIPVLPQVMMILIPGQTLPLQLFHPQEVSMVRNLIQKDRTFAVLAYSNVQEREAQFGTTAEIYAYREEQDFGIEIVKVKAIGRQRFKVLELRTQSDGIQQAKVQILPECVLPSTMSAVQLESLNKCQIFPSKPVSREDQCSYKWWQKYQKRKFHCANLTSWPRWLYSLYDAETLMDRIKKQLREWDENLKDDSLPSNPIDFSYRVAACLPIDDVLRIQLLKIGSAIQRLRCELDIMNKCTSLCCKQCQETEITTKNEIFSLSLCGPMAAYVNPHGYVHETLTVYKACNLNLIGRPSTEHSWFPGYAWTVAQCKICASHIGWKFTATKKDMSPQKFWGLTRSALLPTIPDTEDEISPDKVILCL

Compound: CN1CCC(n2cc(-c3c[nH]c4ncc(-c5ccc(N6CCC(CC7CCN(C(=O)c8ccc(Cl)c(N9CCC(=O)NC9=O)c8)CC7)CC6)nc5)nc34)cn2)CC1
- DC50 [1]: 21.4 nM
- DC50 [2]: 1.8 nM

Compound: CCC(CC)n1cc(Oc2nc(-c3cc(C)c(C(=O)NCCN4CC[C@@H](F)C4)c(C)c3)cnc2N)cn1
- Activity [3]: 0.57 g
- inhibition in vivo at 1 mg/kg [4]: 76.3%
- Activity [5]: 2.27 g
- Activity [6]: -13.75%
- Activity [7]: -26.45%
- Activity [8]: 0.48 g
- Activity [9]: 68.3%
- Activity [10]: 73.27%
- Activity [11]: 423.84 mm3
- Activity [12]: 2.04 g
- inhibition in vivo at 10 mg/kg [13]: -22.4%
- inhibition in vivo at 10 mg/kg [14]: 72.6%
- inhibition in vivo at 1 mg/kg [15]: 12.9%
- Activity [16]: 1349.36 mm3
- Activity [17]: 1896.55 mm3
- Activity [18]: 367.21 mm3
